Measurements taken from US10329302B2, “Bicyclic-fused heteroaryl or aryl compounds” (Pfizer Inc., priority 2014, dated 2019).
Where two headings read alike, the source gives them in different places.

Key:
[1] = target: human IRAK4 FL (Full Length) (Homo sapiens (Human), UniProt Q9NWZ3); assay: IRAK4 Enzymatic DELFIA Assay, Protocol A; type: biochemical
[2] = tested on: R848-induced TNFα production by human peripheral blood mononuclear cells (PBMCs); assay: R848 Induced TNFα in Human PBMC Assay; type: cell-based; conditions: Homo sapiens, PBMC, 3 h, read-out: R848-induced TNFa PBMC IC50 (nM)
[3] = human IRAK4 FL, 0.6 mM ATP (KM), read-out: IRAK4 DELFIA Protocol A IC50

Chain of human IRAK4 FL (Full Length) (Q9NWZ3 whole entry): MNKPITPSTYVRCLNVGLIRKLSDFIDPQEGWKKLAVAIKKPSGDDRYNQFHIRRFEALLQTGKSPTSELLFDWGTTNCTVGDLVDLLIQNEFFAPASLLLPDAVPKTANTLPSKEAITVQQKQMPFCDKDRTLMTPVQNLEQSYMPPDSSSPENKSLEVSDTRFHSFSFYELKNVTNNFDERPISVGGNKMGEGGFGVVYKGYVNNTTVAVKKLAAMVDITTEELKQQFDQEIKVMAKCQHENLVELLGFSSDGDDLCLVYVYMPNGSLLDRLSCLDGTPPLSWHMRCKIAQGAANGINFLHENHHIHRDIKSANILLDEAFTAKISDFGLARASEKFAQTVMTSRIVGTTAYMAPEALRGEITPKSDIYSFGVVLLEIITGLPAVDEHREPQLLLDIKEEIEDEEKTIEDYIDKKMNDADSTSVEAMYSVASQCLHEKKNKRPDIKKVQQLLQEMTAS

| Structure (SMILES) | IC50 [1, 3] | IC50 [2] | IC50 [1] |
| --- | --- | --- | --- |
| COc1cc2c(OC[C@@H]3CCC(=O)N3)cncc2cc1C(N)=O [Example 206, 6-methoxy-4-{[(2S)-5-oxopyrrolidin-2-yl]methoxy}isoquinoline-7-carboxamide] | 216 nM | 4570 nM | – |
| COc1cc2c(OC[C@H]3NC(=O)[C@](F)(CO)[C@H]3C)nccc2cc1C(N)=O [Example 208, 1-{[(2S,3S,4R)-4-fluoro-4-(hydroxymethyl)-3-methyl-5-oxopyrrolidin-2-yl]methoxy}-7-methoxyisoquinoline-6-carboxamide] | 1.1 nM | 87 nM | – |
| COc1cc2c(OC[C@@H]3CCC(=O)N3)ncnc2cc1C(N)=O [Example 209, 6-methoxy-4-{[(2S)-5-oxopyrrolidin-2-yl]methoxy}quinazoline-7-carboxamide] | 251 nM | 9310 nM | – |
| COc1cc2c(OC[C@@H]3C[C@@](F)(CF)C(=O)N3)nccc2cc1C(N)=O [Example 215, 1-{[(2S,4S)-4-fluoro-4-(fluoromethyl)-5-oxopyrrolidin-2-yl]methoxy}-7-methoxyisoquinoline-6-carboxamide] | – | 35 nM | 1.7 nM |
| COc1cc2c(OC[C@H]3NC(=O)C[C@H]3C)cccc2cc1C(N)=O [Example 216, 3-methoxy-5-{[(2S,3R)-3-methyl-5-oxopyrrolidin-2-yl]methoxy}naphthalene-2-carboxamide] | 0.4 nM | 27 nM | – |
| COc1cc2c(OC[C@H]3NC(=O)[C@@H](F)[C@H]3C)cccc2cc1C(N)=O [Example 218, 5-{[(2S,3S,4S)-4-fluoro-3-methyl-5-oxopyrrolidin-2-yl]methoxy}-3-methoxynaphthalene-2-carboxamide] | 0.3 nM | 11 nM | – |
| CC(C)Oc1cc2c(OC[C@H]3NC(=O)C[C@H]3C)nccc2cc1C(N)=O [Example 219, 1-{[(2S,3R)-3-methyl-5-oxopyrrolidin-2-yl]methoxy}-7-(propan-2-yloxy)isoquinoline-6-carboxamide] | 1.7 nM | 65 nM | – |
| COc1cc2c(OC[C@@H]3C[C@@H](CC#N)C(=O)N3)nccc2cc1C(N)=O [Example 225, 1-{[(2S,4S)-4-(cyanomethyl)-5-oxopyrrolidin-2-yl]methoxy}-7-methoxyisoquinoline-6-carboxamide] | 3.4 nM | 155 nM | – |
| COc1cc2c(OC[C@H]3NC(=O)O[C@@H]3C)nccc2cc1C(N)=O [Example 227, 7-methoxy-1-{[(4R,5R)-5-methyl-2-oxo-1,3-oxazolidin-4-yl]methoxy}isoquinoline-6-carboxamide] | 19 nM | 749 nM | – |
| COc1cc2c(OC[C@H]3NC(=O)O[C@@H]3C)cccc2cc1C(N)=O [Example 228, 3-methoxy-5-{[(4R,5R)-5-methyl-2-oxo-1,3-oxazolidin-4-yl]methoxy}naphthalene-2-carboxamide] | 4.2 nM | 118 nM | – |
| COc1cc2c(OC[C@H]3COC(=O)N3)nccc2cc1C(N)=O [Example 229, 7-methoxy-1-{[(4S)-2-oxo-1,3-oxazolidin-4-yl]methoxy}isoquinoline-6-carboxamide] | 3510 nM | 6300 nM | – |
| COc1cc2c(OC[C@@H]3COC(=O)N3)nccc2cc1C(N)=O [Example 230, 7-methoxy-1-{[(4R)-2-oxo-1,3-oxazolidin-4-yl]methoxy}isoquinoline-6-carboxamide] | 7 nM | 199 nM | – |
| COc1cc2c(OC[C@@H]3C[C@H](OC)C(=O)N3)cccc2cc1C(N)=O [Example 231, 3-methoxy-5-{[(2S,4S)-4-methoxy-5-oxopyrrolidin-2-yl]methoxy}naphthalene-2-carboxamide] | – | 509 nM | 67 nM |
| COc1cc2c(OC[C@@H]3C[C@@H](OC)C(=O)N3)cccc2cc1C(N)=O [Example 232, 3-methoxy-5-{[(2S,4R)-4-methoxy-5-oxopyrrolidin-2-yl]methoxy}naphthalene-2-carboxamide] | 20 nM | 261 nM | – |
| COc1cc2c(OC[C@@H]3COC(=O)N3)cccc2cc1C(N)=O [Example 233, 3-methoxy-5-{[(4R)-2-oxo-1,3-oxazolidin-4-yl]methoxy}naphthalene-2-carboxamide] | 0.3 nM | 47 nM | – |
| COc1cc2c(OC[C@H]3NC(=O)O[C@H]3C)cccc2cc1C(N)=O [Example 234, 3-methoxy-5-{[(4R,5S)-5-methyl-2-oxo-1,3-oxazolidin-4-yl]methoxy}naphthalene-2-carboxamide] | 1.9 nM | 45 nM | – |
| COc1cc2c(OC[C@H]3CNC(=O)O3)nccc2cc1C(N)=O [Example 235, 7-methoxy-1-{[(5R)-2-oxo-1,3-oxazolidin-5-yl]methoxy}isoquinoline-6-carboxamide] | 97 nM | 1090 nM | – |
| COc1cc2c(OC[C@H]3NC(=O)O[C@H]3C)nccc2cc1C(N)=O [Example 236, 7-methoxy-1-{[(4R,5S)-5-methyl-2-oxo-1,3-oxazolidin-4-yl]methoxy}isoquinoline-6-carboxamide] | 8.4 nM | 125 nM | – |

| Structure (SMILES) | IC50 [1, 3] | IC50 [2] | IC50 [1] |
| --- | --- | --- | --- |
| COc1cc2c(OC[C@H]3NC(=O)[C@](C)(F)[C@H]3C)nccc2cc1C(N)=O [Example 237, 1-{[(2S,3S,4R)-4-fluoro-3,4-dimethyl-5-oxopyrrolidin-2-yl]methoxy}-7-methoxyisoquinoline-6-carboxamide] | 295 nM | 1080 nM | – |
| COc1cc2c(OC[C@H]3NC(=O)[C@@](C)(F)[C@H]3C)nccc2cc1C(N)=O [Example 238, 1-{[(2S,3S,4S)-4-fluoro-3,4-dimethyl-5-oxopyrrolidin-2-yl]methoxy}-7-methoxyisoquinoline-6-carboxamide] | 3.7 nM | 45 nM | – |
| COc1cc2c(OC[C@@H]3C[C@H](C)C(=O)N3)nccc2cc1C(N)=O [Example 242, 7-methoxy-1-{[(2S,4S)-4-methyl-5-oxopyrrolidin-2-yl]methoxy}isoquinoline-6-carboxamide] | 263 nM | 7250 nM | – |
| COc1cc2c(OC[C@@H]3C[C@@H](C)C(=O)N3)nccc2cc1C(N)=O [Example 243, 7-methoxy-1-{[(2S,4R)-4-methyl-5-oxopyrrolidin-2-yl]methoxy}isoquinoline-6-carboxamide] | 205 nM | 713 nM | – |
| COc1cc2c(OC[C@@H]3CC4(CC4)C(=O)N3)nccc2cc1C(N)=O [Example 245, 7-methoxy-1-{[(6S)-4-oxo-5-azaspiro[2.4]hept-6-yl]methoxy}isoquinoline-6-carboxamide] | 29 nM | 529 nM | – |
| COc1cc2c(OC[C@H]3NC(=O)C[C@@H]3CF)nccc2cc1C(N)=O [Example 249, 1-{[(2S,3S)-3-(fluoromethyl)-5-oxopyrrolidin-2-yl]methoxy}-7-methoxyisoquinoline-6-carboxamide] | 20 nM | 764 nM | – |
| COc1cc2c(OC[C@H]3NC(=O)[C@@H](F)[C@H]3C)ccnc2cc1C(N)=O [Example 250, 4-{[(2S,3S,4S)-4-fluoro-3-methyl-5-oxopyrrolidin-2-yl]methoxy}-6-methoxyquinoline-7-carboxamide] | 0.6 nM | 144 nM | – |
| C=C[C@@H]1CC(=O)N[C@@H]1COc1nccc2cc(C(N)=O)c(OC)cc12 [Example 251, 1-{[(2S,3S)-3-ethenyl-5-oxopyrrolidin-2-yl]methoxy}-7-methoxyisoquinoline-6-carboxamide] | 3.4 nM | 72 nM | – |
| COc1cc2c(OC[C@@H]3C[C@H](F)C(=O)N3)nccc2cc1C(N)=O [Example 252, 1-{[(2S,4S)-4-fluoro-5-oxopyrrolidin-2-yl]methoxy}-7-methoxyisoquinoline-6-carboxamide] | 0.9 nM | 40 nM | – |
| COc1cc2c(OC[C@@H]3C[C@@H](F)C(=O)N3)nccc2cc1C(N)=O [Example 253, 1-{[(2S,4R)-4-fluoro-5-oxopyrrolidin-2-yl]methoxy}-7-methoxyisoquinoline-6-carboxamide] | 2.6 nM | 122 nM | – |
| CC[C@@]1(F)C[C@@H](COc2nccc3cc(C(N)=O)c(OC)cc23)NC1=O [Example 256, 1-{[(2S,4R)-4-ethyl-4-fluoro-5-oxopyrrolidin-2-yl]methoxy}-7-methoxyisoquinoline-6-carboxamide] | 2000 nM | 5620 nM | – |
| CC[C@]1(F)C[C@@H](COc2nccc3cc(C(N)=O)c(OC)cc23)NC1=O [Example 257, 1-{[(2S,4S)-4-ethyl-4-fluoro-5-oxopyrrolidin-2-yl]methoxy}-7-methoxyisoquinoline-6-carboxamide] | 6.8 nM | 60 nM | – |
| COc1cc2c(OC[C@@H]3CC(Cc4ccccc4)C(=O)N3)nccc2cc1C(N)=O (stereo partly drawn) [Example 258, 1-{[(2S)-4-benzyl-5-oxopyrrolidin-2-yl]methoxy}-7-methoxyisoquinoline-6-carboxamide] | 141 nM | 2930 nM | – |
| CC[C@]1(F)C[C@@H](COc2ccnc3cc(C(N)=O)c(OC)cc23)NC1=O [Example 259, 4-{[(2S,4S)-4-ethyl-4-fluoro-5-oxopyrrolidin-2-yl]methoxy}-6-methoxyquinoline-7-carboxamide] | 3.1 nM | 120 nM | – |
| CC[C@@]1(F)C[C@@H](COc2ccnc3cc(C(N)=O)c(OC)cc23)NC1=O [Example 260, 4-{[(2S,4R)-4-ethyl-4-fluoro-5-oxopyrrolidin-2-yl]methoxy}-6-methoxyquinoline-7-carboxamide] | 202 nM | 6280 nM | – |
| COc1cc2c(OC[C@H]3NC(=O)[C@H]4[C@@H]3C4(C)C)nccc2cc1C(N)=O [Example 263, 1-{[(1R,2S,5S)-6,6-dimethyl-4-oxo-3-azabicyclo[3.1.0]hex-2-yl]methoxy}-7-methoxyisoquinoline-6-carboxamide] | 80 nM | 496 nM | – |
| COc1cc2c(OCC3(C)COC(=O)N3)nccc2cc1C(N)=O (stereo not shown) [Example 266, 7-methoxy-1-[(4-methyl-2-oxo-1,3-oxazolidin-4-yl)methoxy]isoquinoline-6-carboxamide] | 74 nM | 394 nM | – |
